Measurements reported in PubChem BioAssay (NCI).
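Here, GI50 denotes the concentration required for 50% inhibition of growth. Definition used: TGI = concentration required for complete inhibition of growth.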

Experiments:
Experiment in all cases: NCI anticancer screen, dose series, 384-well format
NCI-H460 NSCLC = test system: NCI-H460 NSCLC
HL-60(TB) leukemia = test system: HL-60(TB) leukemia
RPMI-8226 leukemia = test system: RPMI-8226 leukemia
UO-31 renal = test system: UO-31 renal
RXF 393 renal = test system: RXF 393 renal
CAKI-1 renal = test system: CAKI-1 renal
786-0 renal = test system: 786-0 renal
HT29 colon = test system: HT29 colon
MCF7 breast = test system: MCF7 breast
UACC-257 melanoma = test system: UACC-257 melanoma
SK-MEL-2 melanoma = test system: SK-MEL-2 melanoma
COLO 205 colon = test system: COLO 205 colon
MALME-3M melanoma = test system: MALME-3M melanoma
SW-620 colon = test system: SW-620 colon
UACC-62 melanoma = test system: UACC-62 melanoma
NCI/ADR-RES ovarian = test system: NCI/ADR-RES ovarian
SF-539 CNS = test system: SF-539 CNS
KM12 colon = test system: KM12 colon
K-562 leukemia = test system: K-562 leukemia
SR leukemia = test system: SR leukemia
MOLT-4 leukemia = test system: MOLT-4 leukemia
SNB-19 CNS = test system: SNB-19 CNS
IGROV1 ovarian = test system: IGROV1 ovarian
T-47D breast = test system: T-47D breast
SK-MEL-28 melanoma = test system: SK-MEL-28 melanoma
HCT-15 colon = test system: HCT-15 colon
OVCAR-5 ovarian = test system: OVCAR-5 ovarian
SN12C renal = test system: SN12C renal
MDA-MB-468 breast = test system: MDA-MB-468 breast
HCC-2998 colon = test system: HCC-2998 colon
PC-3 prostate = test system: PC-3 prostate
A549 NSCLC = test system: A549 NSCLC
NCI-H226 lung = test system: NCI-H226 lung
NCI-H522 lung = test system: NCI-H522 lung
SF-295 CNS = test system: SF-295 CNS
MDA-MB-231 breast = test system: MDA-MB-231 breast
MDA-MB-435 melanoma = test system: MDA-MB-435 melanoma
SK-MEL-5 melanoma = test system: SK-MEL-5 melanoma
OVCAR-8 ovarian = test system: OVCAR-8 ovarian
U251 glioblastoma = test system: U251 glioblastoma
CCRF-CEM leukemia = test system: CCRF-CEM leukemia
DU-145 prostate = test system: DU-145 prostate
NCI-H23 lung = test system: NCI-H23 lung
M14 melanoma = test system: M14 melanoma
HOP-62 NSCLC = test system: HOP-62 NSCLC
BT-549 breast = test system: BT-549 breast
A498 renal = test system: A498 renal
ACHN renal = test system: ACHN renal
SK-OV-3 ovarian = test system: SK-OV-3 ovarian
LOX IMVI melanoma = test system: LOX IMVI melanoma
HCT-116 colon = test system: HCT-116 colon
TK-10 renal = test system: TK-10 renal
OVCAR-4 ovarian = test system: OVCAR-4 ovarian
HOP-92 NSCLC = test system: HOP-92 NSCLC
OVCAR-3 ovarian = test system: OVCAR-3 ovarian
SF-268 CNS = test system: SF-268 CNS
NCI-H322M lung = test system: NCI-H322M lung

COCCOCCOCCOCCOC(=O)OC[n+]1ccc(NC(=NCCCCCCOc2ccc(Cl)cc2)NC#N)cc1
GI50 (NCI-H460 NSCLC): < 10 nM | TGI (NCI-H460 NSCLC): < 10 nM | GI50 (HL-60(TB) leukemia): < 10 nM | TGI (HL-60(TB) leukemia): < 10 nM | GI50 (RPMI-8226 leukemia): < 10 nM | TGI (RPMI-8226 leukemia): < 10 nM | GI50 (UO-31 renal): < 10 nM | TGI (UO-31 renal): < 10 nM | GI50 (RXF 393 renal): < 10 nM | TGI (RXF 393 renal): < 10 nM | GI50 (CAKI-1 renal): < 10 nM | TGI (CAKI-1 renal): < 10 nM | GI50 ([…]-0 renal): < 10 nM | TGI (786-0 renal): < 10 nM | GI50 (HT29 colon): < 10 nM | TGI (HT29 colon): < 10 nM | GI50 (MCF7 breast): < 10 nM | TGI (MCF7 breast): < 10 nM | GI50 (UACC-257 melanoma): < 10 nM | TGI (UACC-257 melanoma): 15.8 nM | GI50 (SK-MEL-2 melanoma): < 10 nM | TGI (SK-MEL-2 melanoma): < 10 nM | GI50 (COLO 205 colon): < 10 nM | TGI (COLO 205 colon): < 10 nM | GI50 (MALME-3M melanoma): 25.3 nM | TGI (MALME-3M melanoma): 46.4 nM | GI50 (SW-620 colon): < 10 nM | TGI (SW-620 colon): < 10 nM | GI50 (UACC-62 melanoma): < 10 nM | TGI (UACC-62 melanoma): < 10 nM | GI50 (NCI/ADR-RES ovarian): < 10 nM | TGI (NCI/ADR-RES ovarian): < 10 nM | GI50 (SF-539 CNS): < 10 nM | TGI (SF-539 CNS): < 10 nM | GI50 (KM12 colon): < 10 nM | TGI (KM12 colon): < 10 nM | GI50 (K-562 leukemia): < 10 nM | TGI (K-562 leukemia): < 10 nM | GI50 (SR leukemia): 18.8 nM | TGI (SR leukemia): 33.3 nM | GI50 (MOLT-4 leukemia): < 10 nM | TGI (MOLT-4 leukemia): < 10 nM | GI50 (SNB-19 CNS): < 10 nM | TGI (SNB-19 CNS): < 10 nM | GI50 (IGROV1 ovarian): < 10 nM | TGI (IGROV1 ovarian): < 10 nM | GI50 (T-47D breast): < 10 nM | TGI (T-47D breast): < 10 nM | GI50 (SK-MEL-28 melanoma): < 10 nM | TGI (SK-MEL-28 melanoma): < 10 nM | GI50 (HCT-15 colon): < 10 nM | TGI (HCT-15 colon): < 10 nM | GI50 (OVCAR-5 ovarian): < 10 nM | TGI (OVCAR-5 ovarian): < 10 nM | GI50 (SN12C renal): < 10 nM | TGI (SN12C renal): < 10 nM | GI50 (MDA-MB-468 breast): < 10 nM | TGI (MDA-MB-468 breast): < 10 nM | GI50 (HCC-2998 colon): < 10 nM | TGI (HCC-2998 colon): < 10 nM | GI50 (PC-3 prostate): < 10 nM | TGI (PC-3 prostate): < 10 nM | GI50 (A549 NSCLC): < 10 nM | TGI (A549 NSCLC): 19.4 nM | GI50 (NCI-H226 lung): 77.9 nM | TGI (NCI-H226 lung): 2960 nM | GI50 (NCI-H522 lung): < 10 nM | TGI (NCI-H522 lung): < 10 nM | GI50 (SF-295 CNS): < 10 nM | TGI (SF-295 CNS): < 10 nM | GI50 (MDA-MB-231 breast): 15.2 nM | TGI (MDA-MB-231 breast): 30.1 nM | GI50 (MDA-MB-435 melanoma): < 10 nM | TGI (MDA-MB-435 melanoma): < 10 nM | GI50 (SK-MEL-5 melanoma): < 10 nM | TGI (SK-MEL-5 melanoma): < 10 nM | GI50 (OVCAR-8 ovarian): < 10 nM | TGI (OVCAR-8 ovarian): < 10 nM | GI50 (U251 glioblastoma): < 10 nM | TGI (U251 glioblastoma): < 10 nM | GI50 (CCRF-CEM leukemia): < 10 nM | TGI (CCRF-CEM leukemia): < 10 nM | GI50 (DU-145 prostate): < 10 nM | TGI (DU-145 prostate): 18.8 nM | GI50 (NCI-H23 lung): < 10 nM | TGI (NCI-H23 lung): < 10 nM | GI50 (M14 melanoma): < 10 nM | TGI (M14 melanoma): 18.9 nM | GI50 (HOP-62 NSCLC): < 10 nM | TGI (HOP-62 NSCLC): < 10 nM | GI50 (BT-549 breast): < 10 nM | TGI (BT-549 breast): < 10 nM | GI50 (A498 renal): 25.3 nM | TGI (A498 renal): 58.6 nM | GI50 (ACHN renal): < 10 nM | TGI (ACHN renal): < 10 nM | GI50 (SK-OV-3 ovarian): < 10 nM | TGI (SK-OV-3 ovarian): < 10 nM | GI50 (LOX IMVI melanoma): < 10 nM | TGI (LOX IMVI melanoma): < 10 nM | GI50 (HCT-116 colon): < 10 nM | TGI (HCT-116 colon): < 10 nM | GI50 (TK-10 renal): < 10 nM | TGI (TK-10 renal): < 10 nM | GI50 (OVCAR-4 ovarian): < 10 nM | TGI (OVCAR-4 ovarian): < 10 nM | GI50 (HOP-92 NSCLC): 21.6 nM | TGI (HOP-92 NSCLC): 41.5 nM | GI50 (OVCAR-3 ovarian): < 10 nM | TGI (OVCAR-3 ovarian): < 10 nM | GI50 (SF-268 CNS): < 10 nM | TGI (SF-268 CNS): < 10 nM | GI50 (NCI-H322M lung): < 10 nM | TGI (NCI-H322M lung): < 10 nM
